Results as given in patent publication US5071643A, “Solvent system enhancing the solubility of pharmaceuticals for encapsulation” (R. P. Scherer Corporation, priority 1987, dated 1991).

Columns and labels:
[1] = Appearance of ibuprofen mixtures in PEG 400 with sodium or potassium hydroxide (visual inspection); assay type: physicochemical
Protocol: Mixtures were prepared in 10 g quantities by dispersing the acidic pharmaceutical agent in polyethylene glycol or polyethylene glycol and glycerin or polyethylene glycol and polyvinylpyrrolidone or polyethylene glycol, glycerin, and polyvinylpyrrolidone. Aqueous solutions of hydroxide were then added.

[2] = Solubility of the basic drug thioridazine in PEG 400 in presence and absence of hydrogen ion

Row | Appearance (Room temp) ([1]; 200 mg in 200 mg PEG 400, NaOH 0.1 M/E, water 1.5 wt %, slight ppt) | Appearance (Room temp) ([1]; 200 mg in 200 mg PEG 400, NaOH 0.2 M/E, water 2.8 wt %) | Appearance (Room temp) ([1]; 200 mg in 200 mg PEG 400, NaOH 0.3 M/E, water 4.1 wt %) | Appearance (Room temp) ([1]; 200 mg in 200 mg PEG 400, NaOH 0.4 M/E, water 5.2 wt %) | Appearance (Room temp) ([1]; 200 mg in 200 mg PEG 400, NaOH 0.5 M/E, water 6.6 wt %, solid admixture) | precipitation in presence of sodium hydroxide ([1]; PEG 400, 0.5 or more mole equivalents NaOH) | precipitation in presence of potassium hydroxide ([1]; PEG 400, 1.0 mole equivalents KOH, even at 4° C.) | SMILES | RESULT at 5° C. ([2]; FORMULA I, Hydrochloric Acid 0.0 mg) | RESULT at 5° C. ([2]; FORMULA II, Hydrochloric Acid 2.4 mg)
1 | Insoluble | Soluble | Soluble | Soluble | Insoluble | precipitation occurs | no precipitation occurs | CC(C)Cc1ccc(C(C)C(=O)O)cc1 (stereo not drawn) [Ibuprofen, ibuprofen] | – | –
2 | – | – | – | – | – | – | – | CSc1ccc2c(c1)N(CCC1CCCCN1C)c1ccccc1S2 (stereo not drawn) [Thioridazine, thioridazine] | INSOLUBLE | SOLUBLE
